Key:
[1] = Mouse liver microsomal stability in vitro; assay type: in vitro ADME; conditions: liver microsomes, read-out: MLM t1/2
Method: Selected compounds were assessed for their aqueous solubility, Log D and mouse and human liver microsomal stability.

[2] = test system: inflammatory cytokine mRNAs in astrocytes; assay: inflammatory cytokine mRNAs in LPS-stimulated astrocytes; assay type: cell-based
Method: Next, the impact of SRI-42127 on induction of inflammatory cytokine mRNAs as depicted in FIG. 15, Panel B was assessed. A significant 3-4-fold suppression of mRNA for IL-1β, IL-6, CXCL1, and CCL2 was observed. […] All chemokines were likewise suppressed, including KC, CCL2, CCL3, CCL4, CXCL10, from 2.5 to 8.1-fold.

CN(c1ccc2ncc(-c3ccc4cn[nH]c4c3)n2n1)C1CCOCC1 [Compound 19]
half-life [1]: 3.3 min | suppression of mRNA for IL-1β, IL-6, CXCL1, and CCL2 [2]: 3-4 fold | increase of IL-10 mRNA ([2]; 1.0 μM): ~3 fold

— patent publication US12435091B2, “RNA-binding protein multimerization inhibitors and methods of use thereof” (THE UAB RESEARCH FOUNDATION, priority 2020, dated 2025)
